Source: patent publication US20130150340A1, “6-(4-Hydroxy-phenyl)-1H-pyrazolo[3,4-b]pyridine-4-carboxylic acid amide derivatives as kinase inhibitors” (SANOFI, priority 2011, published 2013)

Target: T1, human full-length recombinant PKC βII (Homo sapiens, UniProt P05771)
T1 construct: Active human full-length recombinant PKC βII; purchased Invitrogen GmbH, Darmstadt, Germany
Assay: Determination of PKC βII inhibition (Caliper mobility-shift kinase assay)
Type: biochemical
Conditions: example compounds at a final concentration of 1.14 μM (±0.15 μM); 60 min incubation at 32° C.
Experimental: Determination of PKC 3H Inhibition
PKC βII inhibition was determined according to the following protocol:
Active human full-length recombinant PKC βII and the peptide substrate, Fluorescein-RFARKGSLRQKNV, were purchased from Invitrogen GmbH, Darmstadt, Germany. Adenosine-5′-triphosphate (ATP), bovine serum albumine (BSA), dimethylsulphoxide (DMSO), 4-(2-hydroxyethyl)piperazine-1-ethanesulfonic acid (Hepes), Triton X-100, 1,2-Dioleoyl-sn-glycerol (DAG), L-α-Phosphatidyl-L-serine (PS), calcium chloride (CaCl2), and Pluronic F-68 were purchased from Sigma-Aldrich, Munich, Germany. Magnesium chloride, 1 M sodium hydroxide solution, 1M hydrochloric acid solution and EDTA were obtained from Merck Biosciences, Darmstadt, Germany.
Test compounds were diluted to three times the test concentration in buffer 1 (30 mM Hepes-NaOH, pH 7.4, 0.01% Pluronic F-68 and 3% (v/v) DMSO). The PKC βII enzyme was diluted to a concentration of 30 ng/ml in buffer 2 (30 mM Hepes-NaOH, pH 7.4, 15 mM MgCl2, 150 μM CaCl2, 150 μg/ml PS, 60 μg/ml DAG, and 0.045% (w/v) Triton X-100). The peptide substrate and ATP were diluted to concentrations of 3 μM and 120 μM, respectively, in buffer 2. Two μl of the compound solution were mixed with 2 μl of the diluted enzyme in a 384-well small volume microtiter plate (Greiner, Bio-One, Frickenhausen, Germany), and the kinase reaction was initiated by addition of 2 μl of the solution containing peptide substrate and ATP. After 60 min incubation at 32° C., the reaction was stopped by addition of 20 μl of a solution containing 130 mM Hepes-NaOH, pH 7.4, 0.0195% (v/v) Brij-35, 6.5 mM EDTA, 0.13% chip coating reagent 3 (Caliper Lifescience Inc, Hopkinton, Mass.) and 6.5% (v/v) DMSO. Phosphorylation of the substrate peptide was then detected on a Caliper 3000 instrument essentially as described by Pommereau et al (J. Biomol. Screening 2004, 9(5), […]), Separation conditions were as follows: Pressure −0.8 psi, upstream voltage −3000 V, downstream voltage −800 V. Positive controls (buffer 1 instead of compound) and negative controls (buffer 1 instead of compound and buffer 2 instead of kinase solution) were run in parallel on each plate. Fractional turnover (R) was determined as the height of the peak of the phosphorylated peptide product divided by the sum of the unphosphorylated substrate and phosphorylated product peak heights. Percent-inhibition values for the test compounds were determined using the formula
% Inhibition=100*(1−(Rcompound−Rnegative control)/(Rpositive control−Rnegative control).

T1 sequence (P05771 1-673 isoform P05771-2): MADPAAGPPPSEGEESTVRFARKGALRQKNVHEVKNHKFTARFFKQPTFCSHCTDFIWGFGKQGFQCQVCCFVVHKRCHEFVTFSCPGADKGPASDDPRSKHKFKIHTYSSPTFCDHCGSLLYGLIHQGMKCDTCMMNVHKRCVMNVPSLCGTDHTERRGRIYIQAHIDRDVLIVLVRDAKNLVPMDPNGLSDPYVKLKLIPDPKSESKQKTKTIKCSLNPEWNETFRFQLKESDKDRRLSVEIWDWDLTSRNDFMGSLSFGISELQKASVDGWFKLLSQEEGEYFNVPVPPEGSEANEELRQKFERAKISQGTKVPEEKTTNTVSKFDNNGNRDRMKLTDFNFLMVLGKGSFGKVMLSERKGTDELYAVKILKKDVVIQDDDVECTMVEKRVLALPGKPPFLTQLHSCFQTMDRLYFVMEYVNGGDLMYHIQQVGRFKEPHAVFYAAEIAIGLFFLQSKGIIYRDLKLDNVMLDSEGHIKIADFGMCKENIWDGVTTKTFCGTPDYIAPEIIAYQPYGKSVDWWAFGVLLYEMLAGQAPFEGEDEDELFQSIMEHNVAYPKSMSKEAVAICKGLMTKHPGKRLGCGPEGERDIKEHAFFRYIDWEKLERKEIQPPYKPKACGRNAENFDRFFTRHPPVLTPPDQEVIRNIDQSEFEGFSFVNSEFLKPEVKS

| SMILES | inhibition at 1.14 µM [%] |
| --- | --- |
| O=C(c1cc(-c2ccc(O)cc2)nc2[nH]ncc12)N1CCC2(CCNCC2)CC1 [Example 44, (3,9-Diaza-spiro[5.5]undec-3-yl)-[6-(4-hydroxy-phenyl)-1H-pyrazolo[3,4-b]pyridin-4-yl]-methanone] | 44 |
| NC1CCN(C(=O)c2cc(-c3ccc(O)cc3)nc3[nH]ncc23)CC1 [Example 38, (4-Amino-piperidin-1-yl)-[6-(4-hydroxy-phenyl)-1H-pyrazolo[3,4-b]pyridin-4-yl]-methanone] | 60 |
| CN1CCCC(NC(=O)c2cc(-c3ccc(O)cc3)nc3[nH]ncc23)C1 (stereo not drawn) [Example 41, 6-(4-Hydroxy-phenyl)-1H-pyrazolo[3,4-b]pyridine-4-carboxylic acid (1-methyl-piperidin-3-yl)-amide] | 73 |
| O=C(NC1CN2CCC1CC2)c1cc(-c2ccc(O)cc2)nc2[nH]ncc12 (stereo not drawn) [Example 72, 6-(4-Hydroxy-phenyl)-1H-pyrazolo[3,4-b]pyridine-4-carboxylic acid (1-aza-bicyclo[2.2.2]oct-3-yl)-amide] | 78 |
| CO[C@H]1CNC[C@@H]1NC(=O)c1cc(-c2ccc(O)cc2)nc2[nH]ncc12 [Example 6, 6-(4-Hydroxy-phenyl)-1H-pyrazolo[3,4-b]pyridine-4-carboxylic acid ((3S,4S)-4-methoxy-pyrrolidin-3-yl)-amide] | 87 |
| O=C(NC1CCNC1)c1cc(-c2ccc(O)cc2)nc2[nH]ncc12 (stereo not drawn) [Example 5, 6-(4-Hydroxy-phenyl)-1H-pyrazolo[3,4-b]pyridine-4-carboxylic acid pyrrolidin-3-ylamide] | 85 |
| O=C(c1cc(-c2ccc(O)cc2)nc2[nH]ncc12)N1CCNCC1 [Example 4, [6-(4-Hydroxy-phenyl)-1H-pyrazolo[3,4-b]pyridin-4-yl]-piperazin-1-yl-methanone] | 88 |
| O=C(c1cc(-c2ccc(O)cc2)nc2[nH]ncc12)N1CCC2(CCNC2)C1 (stereo not drawn) [Example 25, (2,7-Diaza-spiro[4.4]non-2-yl)-[6-(4-hydroxy-phenyl)-1H-pyrazolo[3,4-b]pyridin-4-yl]-methanone] | 58 |
| CN(C(=O)c1cc(-c2ccc(O)cc2)nc2[nH]ncc12)C1CCNCC1 [Example 42, 6-(4-Hydroxy-phenyl)-1H-pyrazolo[3,4-b]pyridine-4-carboxylic acid methyl-piperidin-4-yl-amide] | 39 |
| N[C@H]1CC[C@@H](CNC(=O)c2cc(-c3ccc(O)cc3)nc3[nH]ncc23)CC1 [Example 12, 6-(4-Hydroxy-phenyl)-1H-pyrazolo[3,4-b]pyridine-4-carboxylic acid (cis-4-amino-cyclohexylmethyl)-amide] | 46 |
| CC1(C)CC(NC(=O)c2cc(-c3ccc(O)cc3)nc3[nH]ncc23)CC(C)(C)N1 [Example 1, 6-(4-Hydroxy-phenyl)-1H-pyrazolo[3,4-b]pyridine-4-carboxylic acid (2,2,6,6-tetramethyl-piperidin-4-yl)-amide] | 18 |
| N[C@H]1CCN(C(=O)c2cc(-c3ccc(O)cc3)nc3[nH]ncc23)C1 [Example 17, ((S)-3-Amino-pyrrolidin-1-yl)-[6-(4-hydroxy-phenyl)-1H-pyrazolo[3,4-b]pyridin-4-yl]-methanone] | 64 |
| NC1CC(NC(=O)c2cc(-c3ccc(O)cc3)nc3[nH]ncc23)C1 (stereo not drawn) [Example 14, 6-(4-Hydroxy-phenyl)-1H-pyrazolo[3,4-b]pyridine-4-carboxylic acid (3-amino-cyclobutyl)-amide] | 69 |
| CN1CCN(C(=O)c2cc(-c3ccc(O)cc3)nc3[nH]ncc23)CC1 [Example 52, [6-(4-Hydroxy-phenyl)-1H-pyrazolo[3,4-b]pyridin-4-yl]-(4-methyl-piperazin-1-yl)-methanone] | 38 |
| O=C(c1cc(-c2ccc(O)cc2)nc2[nH]ncc12)N1CCCC2(CCNC2)C1 (stereo not drawn) [Example 24, (2,7-Diaza-spiro[4.5]dec-7-yl)-[6-(4-hydroxy-phenyl)-1H-pyrazolo[3,4-b]pyridin-4-yl]-methanone] | 29 |
| NC1CCN(C(=O)c2cc(-c3ccc(O)cc3)nc3[nH]ncc23)C1 (stereo not drawn) [Example 45, (3-Amino-pyrrolidin-1-yl)-[6-(4-hydroxy-phenyl)-1H-pyrazolo[3,4-b]pyridin-4-yl]-methanone] | 50 |
| O=C(c1cc(-c2ccc(O)cc2)nc2[nH]ncc12)N1CCOC2(CCCNC2)C1 (stereo not drawn) [Example 27, [6-(4-Hydroxy-phenyl)-1H-pyrazolo[3,4-b]pyridin-4-yl]-(1-oxa-4,8-diaza-spiro[5.5]undec-4-yl)-methanone] | 42 |
| CC(C)C1CN(C(=O)c2cc(-c3ccc(O)cc3F)nc3[nH]ncc23)C(C)(C)CN1 (stereo not drawn) [Example 15, [6-(2-Fluoro-4-hydroxy-phenyl)-1H-pyrazolo[3,4-b]pyridin-4-yl]-(5-isopropyl-2,2-dimethyl-piperazin-1-yl)-methanone] | 94 |
| NC1CCCC(NC(=O)c2cc(-c3ccc(O)cc3)nc3[nH]ncc23)C1 (stereo not drawn) [Example 33, 6-(4-Hydroxy-phenyl)-1H-pyrazolo[3,4-b]pyridine-4-carboxylic acid (3-amino-cyclohexyl)-amide] | 87 |

The next lines start with the values.

| inhibition at 1.14 µM [%] | SMILES |
| --- | --- |
| 28 | O=C(c1cc(-c2ccc(O)cc2)nc2[nH]ncc12)N1CCN(C(=O)C2CC2)CC1 [Example 57, (4-Cyclopropanecarbonyl-piperazin-1-yl)-[6-(4-hydroxy-phenyl)-1H-pyrazolo[3,4-b]pyridin-4-yl]-methanone] |
| 46 | CC(=O)N1CCN(C(=O)c2cc(-c3ccc(O)cc3)nc3[nH]ncc23)CC1 [Example 53, 1-{4-[6-(4-Hydroxy-phenyl)-1H-pyrazolo[3,4-b]pyridine-4-carbonyl]-piperazin-1-yl}-ethanone] |
| 22 | O=C(c1cc(-c2ccc(O)cc2)nc2[nH]ncc12)N1CCN(C(=O)C2CCCO2)CC1 (stereo not drawn) [Example 61, [6-(4-Hydroxy-phenyl)-1H-pyrazolo[3,4-b]pyridin-4-yl]-[4-(tetrahydro-furan-2-carbonyl)-piperazin-1-yl]-methanone] |
| 35 | O=C(c1cccnc1)N1CCN(C(=O)c2cc(-c3ccc(O)cc3)nc3[nH]ncc23)CC1 [Example 74, [6-(4-Hydroxy-phenyl)-1H-pyrazolo[3,4-b]pyridin-4-yl]-[4-(pyridine-3-carbonyl)-piperazin-1-yl]-methanone] |
| 64 | O=C(NC1CCN(C2CCCCC2)CC1)c1cc(-c2ccc(O)cc2)nc2[nH]ncc12 [Example 67, 6-(4-Hydroxy-phenyl)-1H-pyrazolo[3,4-b]pyridine-4-carboxylic acid (1-cyclohexyl-piperidin-4-yl)-amide] |
| 31 | CN1CCC(N(C)C(=O)c2cc(-c3ccc(O)cc3)nc3[nH]ncc23)CC1 [Example 73, 6-(4-Hydroxy-phenyl)-1H-pyrazolo[3,4-b]pyridine-4-carboxylic acid methyl-(1-methyl-piperidin-4-yl)-amide] |
| 46 | CCN1CC2CC1CN2C(=O)c1cc(-c2ccc(O)cc2)nc2[nH]ncc12 (stereo not drawn) [Example 70, (5-Ethyl-2,5-diaza-bicyclo[2.2.1]hept-2-yl)-[6-(4-hydroxy-phenyl)-1H-pyrazolo[3,4-b]pyridin-4-yl]-methanone] |
| 54 | CCN1CCCC(NC(=O)c2cc(-c3ccc(O)cc3)nc3[nH]ncc23)C1 (stereo not drawn) [Example 60, 6-(4-Hydroxy-phenyl)-1H-pyrazolo[3,4-b]pyridine-4-carboxylic acid (1-ethyl-piperidin-3-yl)-amide] |
| 59 | O=C1CC[C@@H](NC(=O)c2cc(-c3ccc(O)cc3)nc3[nH]ncc23)CN1 [Example 69, 6-(4-Hydroxy-phenyl)-1H-pyrazolo[3,4-b]pyridine-4-carboxylic acid ((R)-6-oxo-piperidin-3-yl)-amide] |
| 59 | CN1CCC(NC(=O)c2cc(-c3ccc(O)cc3)nc3[nH]ncc23)CC1 [Example 66, 6-(4-Hydroxy-phenyl)-1H-pyrazolo[3,4-b]pyridine-4-carboxylic acid (1-methyl-piperidin-4-yl)-amide] |
| 73 | CN1CC(NC(=O)c2cc(-c3ccc(O)cc3)nc3[nH]ncc23)C1 [Example 62, 6-(4-Hydroxy-phenyl)-1H-pyrazolo[3,4-b]pyridine-4-carboxylic acid (1-methyl-azetidin-3-yl)-amide] |
